Measurements: patent publication US20030119748A1 (Idun Pharmaceuticals, Inc., priority 1996, published 2003)
Read-outs that look alike come from different tables or passages of the source.

Key:
Type in all cases: biochemical
[1] = target: T1, mICE (Mus musculus, UniProt P29452); assay: Fluorescence enzyme assay, IC50 for ICE (Example 1A)
T1 sequence (P29452 119-402): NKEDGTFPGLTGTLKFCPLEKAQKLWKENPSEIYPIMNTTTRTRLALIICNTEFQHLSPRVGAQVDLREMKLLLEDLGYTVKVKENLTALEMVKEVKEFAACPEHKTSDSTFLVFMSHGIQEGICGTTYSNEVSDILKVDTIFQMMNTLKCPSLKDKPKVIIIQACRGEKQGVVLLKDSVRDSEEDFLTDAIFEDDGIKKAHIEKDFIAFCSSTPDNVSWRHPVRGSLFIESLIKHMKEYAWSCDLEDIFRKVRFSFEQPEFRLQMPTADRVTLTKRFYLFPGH
Method: (§1) Fluorescence enzyme assays detecting the activity of the compounds of Formula 1 utilizing the recombinant ICE and CPP32 enzymes were performed essentially according to Thomberry et al. (Nature, 356:768:774 (1992)) and Nicholson et al. (Nature, 376:37-43 (1995)) respectively, (herein incorporated by reference) in 96 well microtiter plates. The substrate for these assays was Acetyl-Tyr-Val-Ala-Asp-amino-4-methylcoumarin (AMC) for the ICE assay and Acetyl-Asp-Glu-Val-Asp-amino-4-methylcoumarin for the CPP32 and Mch5 assays. Enzyme reactions were run in ICE buffer (25 mM HEPES, 1 mM EDTA, 0.1% CHAPS, 10% sucrose, pH 7.5) containing 2 mM DTT at room temperature in duplicate. The assays were performed by mixing the following components:
(§2) 50 μl of either ICE, Mch2, Mch5 or CPP32 (18.8, 38, 8.1 and 0.153 nM concentrations, respectively) enzyme in ICE buffer containing either 8.0 (ICE, Mch2, CPP32) or 20 (Mch5) mM DTT;
(§3) 50 μl of either the compound of Formula 1 or ICE buffer (control); and
(§4) 100 μl of 20 μM substrate.
(§5) The enzyme and the compound of Formula 1 to be assayed were preincubated in the microtitre plate wells for 30 minutes at room temperature prior to the addition of substrate to initiate the reaction. Fluorescent AMC product formation was monitored for one hour at room temperature by measuring the fluorescence emission at 460 nm using an excitation wavelength of 360 nm. The fluorescence change in duplicate (control) wells were averaged and the mean values were plotted as a function of inhibitor concentration to determine the inhibitor concentration producing 50% inhibition (IC50).

[2] = target: T2, CPP32 (Homo sapiens, UniProt P42574); assay: Fluorescence enzyme assay, IC50 for CPP32 (Example 1A); settings: Table 1, Formula A; 30 min preincubation, room temperature
T2 sequence (P42574 29-277): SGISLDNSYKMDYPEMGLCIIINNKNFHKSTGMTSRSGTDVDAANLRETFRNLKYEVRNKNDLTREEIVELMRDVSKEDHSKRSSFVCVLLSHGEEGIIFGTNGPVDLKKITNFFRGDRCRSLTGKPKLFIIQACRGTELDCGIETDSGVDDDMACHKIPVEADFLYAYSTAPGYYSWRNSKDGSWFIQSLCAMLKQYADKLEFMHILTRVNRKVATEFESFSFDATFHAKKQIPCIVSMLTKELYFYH
Method: as §1, §2, §3, §4, §5

[3] = target: T1, mICE; assay: Dissociation constant Ki for irreversible inhibitors, continuous assay (Example 1B); settings: compounds of Formula B and Formula C, procedure of Example 1B
Excerpt: B. Determination of the Dissociation Constant K1 and Irreversible Rate Constant k3 for Irreversible Inhibitors
For the irreversible inhibition of a ICE/ced-3 Family Protease enzyme with a competitive irreversible inhibitor; using the model represented by the following formulas: [drawing 4]
The product formation at time t may be expressed as: [drawing 5]
where E, I, EI, and E-I denote the active enzyme, inhibitor, non-covalent enzyme-inhibitor complex and covalent enzyme-inhibitor adduct, respectively. The K1 value is the overall dissociation constant of reversible binding steps, and k3 is the irreversible rate constant. The [S] and Ks values are the substrate concentration and the dissociation constant of the substrate bound to the enzyme, respectively. [E]^T is the total enzyme concentration.
The above equations were used to determine the K1 and k3 values of a given inhibitor bound to a ICE/ced-3 family protease. Thus, a continuous assay was run for sixty minutes at various concentrations of the inhibitor and the substrate. The assay was formulated essentially the same as described in Example 1A above, except that the reaction was initiated by adding the enzyme to the substrate-inhibitor mixture. The K1 and k3 values were obtained by simulating the product AMC formation as a function of time according to Equation 1. The reference compound for this assay was Cbz-ValAlaAsp-CH2F.

[4] = Table 1, Formula A, 30 min preincubation, room temperature, read-out: mICE IC50

| Compound | IC50 [1, 4] [nM] | IC50 [2] [nM] | IC50 ([1]; read-out: IC50 (mICE)) [nM] | other results |
| --- | --- | --- | --- | --- |
| C[C@H](NC(=O)c1cc2ccccc2n1Cc1ccccc1)C(=O)N[C@H](C=O)CC(=O)O [Example 24, (3S)-3-[(1-Benzylindole-2-Carbonyl)Alaninyl]Amino-4-Oxo-Butanoic Acid] | 393 | > 50000 |  |  |
| C=CCCn1c(C(=O)NC(C(=O)NC(C=O)CC(=O)O)C(C)C)cc2ccccc21 [Example 27, (3S)-3-[(1-(4′-Butenyl)indole-2-Carbonyl)Valinyl]Amino-4-Oxobutanoic Acid] | 313 | 1450 |  |  |
| CC(C)C(NC(=O)c1cc2ccccc2n1CCCc1ccccc1)C(=O)NC(CC(=O)O)C(=O)CF (stereo not drawn) [Example 52, N-[(1-(3′-Phenylpropyl)Indole-2-Carbonyl)Valinyl]-3-Amino-4-Oxo-5-Fluoropentanoic Acid] |  |  |  | Ki [3]: < 1000 nM |
| CC(C)[C@H](NC(=O)c1cc2ccccc2n1-c1ccccc1)C(=O)NC(CC(=O)O)C(=O)CF (stereo partly drawn) [Example 55, N-[(1-Phenylindole-2-Carbonyl)Valinyl]-3-Amino-4-Oxo-5-Fluoropentanoic Acid] |  |  |  | Ki [3]: < 1000 nM |
| Cc1c(C(=O)NC(C(=O)NC(CC(=O)O)C(=O)COc2cc3ccccc3cc2-c2ncc[nH]2)C(C)C)n(C)c2ccccc12 (stereo not drawn) [Example 80, N-[(1,3-dimethyl-indole-2-cabonyl)valinyl]-3-amino-5-[3-(imidazol-2-yl)-naphthyl-2-oxy]-4-oxo-pentanoic Acid] |  |  | < 1000 |  |
| CC(C)Cc1c(C(=O)NC(C(=O)NC(CC(=O)O)C(=O)COc2c(F)c(F)cc(F)c2F)C(C)C)n(C)c2ccccc12 (stereo not drawn) [Example 83, N-[(1-methyl-3-isobutyl-indole-2-cabonyl)valinyl]-3-amino-4-oxo-5-(2,3,5,6-tetrafluorophenyloxy)-pentanoic Acid] |  |  | < 1000 |  |
| CC(C)Cc1c(C(=O)NC(C(=O)NC(CC(=O)O)C(=O)COc2ccccc2F)C(C)C)n(C)c2ccccc12 (stereo not drawn) [Example 87, N-[(1-methyl-3-isobutyl-indole-2-cabonyl)valinyl]-3-amino-4-oxo-5-(2-fluorophenyloxy)-pentanoic Acid] |  |  | < 1000 |  |
| CC(C)Cc1c(C(=O)NC(CC(C)C)C(=O)NC(CC(=O)O)C(=O)COC(=O)c2c(Cl)cccc2Cl)n(C)c2ccccc12 (stereo not drawn) [Example 90, N-[(1-methyl-3-isobutyl-indole-2-cabonyl)leucinyl]-3-amino-5-(2,6-dichlorobenzoyl) oxy-4-oxo Pentanoic Acid] |  |  | < 1000 |  |
| CC(C)Cc1c(C(=O)NC(CC(C)C)C(=O)NC(CC(=O)O)C(=O)COc2c(F)c(F)cc(F)c2F)n(C)c2ccccc12 (stereo not drawn) [Example 92, N-[(1-methyl-3-isobutyl-indole-2-cabonyl)leucinyl]-3-amino-4-oxo-5-(2,3,5,6-tetrafluorophenyloxy)-pentanoic Acid] |  |  | < 1000 |  |
| CC(C)Cc1c(C(=O)NC(CC(C)C)C(=O)NC(CC(=O)O)C(=O)COP(=O)(c2ccccc2)c2ccccc2)n(C)c2ccccc12 (stereo not drawn) [Example 94, N-[(1-methyl-3-isobutyl-indole-2-cabonyl)leucinyl]-3-amino-5-(diphenylphosphoroxy)-4-oxo-pentanoic Acid] |  |  | < 1000 |  |
| CC(C)Cc1c(C(=O)NC(CC2CCCCC2)C(=O)NC(CC(=O)O)C(=O)COc2c(F)c(F)cc(F)c2F)n(C)c2ccccc12 (stereo not drawn) [Example 97, N-[(1-methyl-3-isobutyl-indole-2-cabonyl)cyclohexylalaninyl]-3-amino-4-oxo-5-(2,3,5,6-tetrafluorophenyloxy)-pentanoic Acid] |  |  | < 1000 |  |
| CC(C)Cc1c(C(=O)NC(CC2CCCCC2)C(=O)NC(CC(=O)O)C(=O)COC(=O)c2c(Cl)cccc2Cl)n(C)c2ccccc12 (stereo not drawn) [Example 99] |  |  | < 1000 |  |
| CC(C)Cc1c(C(=O)NC(CC2CCCCC2)C(=O)NC(CC(=O)O)C(=O)COc2cc(C(F)(F)F)nn2-c2ccccc2)n(C)c2ccccc12 (stereo not drawn) [Example 101, N-[(1-methyl-3-isobutyl-indole-2-cabonyl)cyclohexylalaninyl]-3-amino-4-oxo-5-[1-phenyl-3-(trifluoromethyl)pyrazol-5-yloxy]-pentanoic Acid] |  |  | < 1000 |  |
| Cc1c(C(=O)NC(C(=O)NC(CC(=O)O)C(=O)COc2c(F)c(F)cc(F)c2F)C(C)C)n(C)c2ccccc12 (stereo not drawn) [Example 109, N-[(1,3-dimethyl-indole-2-cabonyl)valinyl]-3-amino-4-oxo-5-(2,3,5,6-tetrafluorophenyloxy)-pentanoic Acid] |  |  | < 1000 |  |
| CC(C)C(NC(=O)c1cc2cc(F)ccc2n1C)C(=O)NC(CC(=O)O)C(=O)COc1c(F)c(F)cc(F)c1F (stereo not drawn) [Example 115, N-[(5-fluoro-1-methyl-indole-2-cabonyl)valinyl]-3-amino-4-oxo-5-(2,3,5,6-tetrafluorophenyloxy)-pentanoic Acid] |  |  | < 1000 |  |

Second part, led by results:

| IC50 [1, 4] [nM] | IC50 [2] [nM] | IC50 ([1]; read-out: IC50 (mICE)) [nM] | Compound | other results |
| --- | --- | --- | --- | --- |
| 177 | > 10000 |  | C[C@H](NC(=O)c1cc2ccccc2n1C)C(=O)N[C@H](C=O)CC(=O)O [Example 4, (3S)-3-[(1-Methylindole-2-Carbonyl)Alaninyl]Amino-4-Oxobutanoic Acid] |  |
| 11700 | > 50000 |  | Cn1c(C(=O)N2CCC[C@H]2C(=O)N[C@H](C=O)CC(=O)O)cc2ccccc21 [Example 7, (3S)-3-[(1-Methylindole-2-Carbonyl)Prolinyl]Amino-4-Oxo-Butanoic Acid] |  |
| 531 | 2480 |  | CC(C)C(NC(=O)c1cc2ccccc2n1C)C(=O)NC(C=O)CC(=O)O [Example 10, (3S)-3-[1-Methylindole-2-Carbonyl)Vainyl]Amino-4-Oxo-Butanoic Acid] |  |
| 5520 | 5620 |  | CC(C)C[C@H](NC(=O)c1cc2ccccc2n1C)C(=O)N[C@H](C=O)CC(=O)O [Example 13, (3S)-3-[(1-Methylindole-2-Carbonyl)Leucinyl]Amino-4-Oxo-Butanoic Acid] |  |
| 34700 | > 50000 |  | Cn1c(C(=O)NCC(=O)N[C@H](C=O)CC(=O)O)cc2ccccc21 [Example 21, (3S)-3-[(1-Methylindole-2-Carbonyl)Glycinyl]-Amino-4-Oxo-Butanoic Acid] |  |
| 1630 | > 50000 |  | CC(NC(=O)c1cc2ccccc2n1CC(=O)O)C(=O)N[C@H](C=O)CC(=O)O (stereo partly drawn) [Example 30, (3S)-3-[(1-(Carboxymethyl)Indole-2-Carbonyl)Alaninyl] Amino-4-Oxobutanoic Acid] |  |
| 198 | > 50000 |  | CC(NC(=O)c1cc2ccccc2n1CCC(=O)O)C(=O)NC(C=O)CC(=O)O [Example 33, (3S)-3-(1-(2′-Carboxyethyl)Indole-2-Carbonyl)Alaninyl] Amino-4-Oxobutanoic Acid] |  |
|  |  | < 1000 | CC(C)C(NC(=O)c1cc2ccccc2n1C)C(=O)NC(CC(=O)O)C(=O)COc1c(F)c(F)cc(F)c1F (stereo not drawn) [Example 112, N-[(1-methyl-indole-2-cabonyl)valinyl]-3-amino-4-oxo-5-(2,3,5,6-tetrafluorophenyloxy)-pentanoic Acid] |  |
|  |  | < 1000 | CC(C)C(NC(=O)c1cc2ccccc2n1CC(=O)O)C(=O)NC(CC(=O)O)C(=O)COc1c(F)c(F)cc(F)c1F (stereo not drawn) [Example 118, N-{[1-(carboxymethyl)-indole-2-cabonyl]valinyl}-3-amino-4-oxo-5-(2,3,5,6-tetrafluorophenyloxy)-pentanoic Acid] |  |
